Data on 19 molecules can be found in patent publication US10653138B2, “Composition for attracting bed bugs” (London School of Hygiene & Tropical Medicine, priority 2015, dated 2020).

Experiment [1] relates to bed bug antennae. Put plainly: Coupled gas chromatography-electroantennography (GC-EAG) of volatile extract from bed bug-exposed paper. The following applies: for Electrophysiology Auto method: bullet = marked under the Auto method; for Responses Total: males plus females, 20 insects tested; for Responses Females: number of females giving an EAG response to the peak; for Responses Females / Responses Males: volatile extract 1 μL; for Responses Males: number of males giving an EAG response to the peak; for electroantennogram (EAG) response: result in words; for Visual inspection (no of responses) >5 / Visual inspection (no of responses) >10 / Visual inspection (no of responses) >15: threshold of individuals responding; for Visual inspection (no of responses) Response: total EAG responses, Table 8. Also noted: species or system Cimex lectularius. From the text:
Experimental insects, unless otherwise stated, were mated males and females of C. lectularius that had been fed 7 to 14 days previously on heparinised sheep blood. The electrodes used to make recordings were Ag/AgCl wires (diameter 0.37 mm) inserted into glass pipettes, made from borosilicate glass capillaries (outer diameter 2.0 mm; inner diameter 1.16 mm). The glass pipettes were filled with Ringers solution (7.55 g NaCl, 0.64 g KCl, 0.22 g CaCl2, 1.73 g MgCl2 g, 0.86 g NaHCO3 and 0.61 g Na3PO4 L^−1 water). The bed bug was then chilled on ice for one minute before dissection. Preparations were held in a continuous, humidified, charcoal filtered air flow ([…]) coming from a glass tube, which was positioned 5 mm from the antennal preparation. Once the antennal preparation and EAG equipment were in position the microscope light was switched off.
The GC used was a HP-680N, containing a HP-1 column (30 m×0.32 mm; film thickness, 0.52 μm) with a COC injector, hydrogen carrier gas and a FID. The oven temperature was maintained at 40° C. for two min and then programmed at 5° C. min^−1 to 100° C. and then at 10° C. […] to 250° C. The end of the column was inserted into the centre of the main air flow so that the eluent went over the antennal preparation. […] Amplification of the signals was set at ×10,000. Signals were analysed using the computer-based software package, EAD 2000 (Syntech®, The Netherlands). The volatile extract (1 μL) from an air entrainment of bed bug-exposed papers (see Example 1) was injected onto the column. A solution of n-alkanes (C7-C25, 1 μL of 100 ng μL^−1) in hexane was also analysed to calculate the retention indices (RI) of any EAG-active peaks for comparison with GC and coupled GC-MS traces (Equation 1).
Electroantennographic (EAG) responses from the coupled gas chromatography-electroantennographic (GC-EAG) analysis of the volatile extract collected using air entrainment were determined by visual appearance. Coupled GC-EAG traces were examined visually on a light box to identify EAG responses and match them to peaks on the GC traces. A combination of characteristics including the amplitude and shape of the deflection from the baseline were used to identify EAG responses. For example, an EAG response is usually of greater amplitude than the background noise and it has a characteristic negative deflection followed by a quick positive deflection resulting in a short sharp response often of similar shape and position as the corresponding peak on the GC trace. Responses were matched between males and females separately onto master traces for each sex. The EAG-active peaks were labelled from 1 to 21. Male and female master traces were then overlaid to identify where consistent responses occurred in both sexes. Five or more individuals responding at the same retention time on the GC trace was considered to be a consistent EAG response and the corresponding peak on the GC trace was considered to be EAG-active. Three thresholds were used: greater than 5, greater than 10 or greater than 15 individuals responding to the same GC peak or at the same retention time. The traces were then subjected to manual or automated statistical analysis.

For experiment [2], the system named is bed bugs. The following applies: cited from earlier work; for attraction of bed bugs to safe shelters: volatile components of aggregation pheromone.

With `CC/C=C/C=C/C(C)=O` (single isomer, unassigned) [(3E,5E)-Octadien-2-one, (3E,5E)-octadien-2-one], in experiment [1], the “Electrophysiology Auto method” value was “•”, the “Responses Total” value is reported as 13, the “Responses Females” value worked out at 5 and the “Responses Males” value was 8. Moreover, in experiment [1], the “electroantennogram (EAG) response” value is “EAG-active”, the “Visual inspection (no of responses) >5” value is “• (>5)”, the “Visual inspection (no of responses) >10” value is on record as “• (>10)” and the “Visual inspection (no of responses) Response” value amounted to 13.

Consider `CC1=CCC2C(C1)C2(C)C` (single isomer, unassigned) [3-Carene, 3-carene], for which, in experiment [1], the “Responses Total” value is 11, the “Responses Females” value came out at 7, the “Responses Males” value came out at 4 and the “electroantennogram (EAG) response” value is on record as “EAG-active”. In experiment [1], the “Visual inspection (no of responses) >5” value is listed as “• (>5)”, the “Visual inspection (no of responses) >10” value was “• (>10)” and the “Visual inspection (no of responses) Response” value is reported as 11.

With `CCCCCCCC/C=C/C=O` [(E)-2-Undecenal, (E)-2-undecenal], in experiment [1], the “Responses Total” value came to 9, the “Responses Females” value stood at 5, the “Responses Males” value amounted to 4 and the “electroantennogram (EAG) response” value was “EAG-active”. Also, in experiment [1], the “Visual inspection (no of responses) >5” value is “• (>5)” and the “Visual inspection (no of responses) Response” value amounted to 9.

Take `CCC/C=C/C=O` [(E)-2-hexenal]: the “attraction of bed bugs to safe shelters” value in experiment [2] is recorded as “attract bed bugs to safe shelters”.

With `CSSC` [dimethyl disulfide], the “attraction of bed bugs to safe shelters” value in experiment [2] is listed as “attract bed bugs to safe shelters”.

For the molecule `CCCCCCCCCC=O` [Decanal, decanal], in experiment [1], the “Responses Total” value is 12, the “Responses Females” value worked out at 5, the “Responses Males” value is listed as 7 and the “electroantennogram (EAG) response” value is recorded as “EAG-active”. In experiment [1], the “Visual inspection (no of responses) >5” value is listed as “• (>5)”, the “Visual inspection (no of responses) >10” value is reported as “• (>10)” and the “Visual inspection (no of responses) Response” value is on record as 12.

Regarding `C=C1/C=C/[C@H](C(C)C)CC/C(C)=C/CC1` [(S)-(−)-Germacrene D, (S)-(−)-germacrene D], in experiment [1], the “Responses Total” value amounted to 14, the “Responses Females” value is recorded as 7, the “Responses Males” value came to 7 and the “electroantennogram (EAG) response” value was “EAG-active”. Also, in experiment [1], the “Visual inspection (no of responses) >5” value was “• (>5)”, the “Visual inspection (no of responses) >10” value was “• (>10)” and the “Visual inspection (no of responses) Response” value was found to be 14.

In the case of `CCCCCCC=O` (single isomer, unassigned) [Heptanal, heptanal], in experiment [1], the “Electrophysiology Auto method” value is “•”, the “Responses Total” value worked out at 13, the “Responses Females” value is recorded as 7 and the “Responses Males” value was 6. For the same molecule, in experiment [1], the “electroantennogram (EAG) response” value is given as “EAG-active”, the “Visual inspection (no of responses) >5” value is given as “• (>5)”, the “Visual inspection (no of responses) >10” value was “• (>10)” and the “Visual inspection (no of responses) Response” value was found to be 13.

As for `CCCCCCCC=O` (single isomer, unassigned) [Octanal, octanal], in experiment [1], the “Electrophysiology Auto method” value is “•”, the “Responses Total” value is recorded as 19, the “Responses Females” value stood at 10 and the “Responses Males” value was 9. Besides, in experiment [1], the “electroantennogram (EAG) response” value is on record as “EAG-active”, the “Visual inspection (no of responses) >5” value is given as “• (>5)”, the “Visual inspection (no of responses) >10” value is “• (>10)” and the “Visual inspection (no of responses) >15” value is given as “• (>15)”. Further, the “Visual inspection (no of responses) Response” value in experiment [1] is 19.

`CCCCCCCCC(=O)O` [Nonanoic acid, nonanoic acid]: in experiment [1], the “Responses Total” value stood at 12, the “Responses Females” value stood at 6, the “Responses Males” value is recorded as 6 and the “electroantennogram (EAG) response” value is “EAG-active”. In addition, in experiment [1], the “Visual inspection (no of responses) >5” value is “• (>5)”, the “Visual inspection (no of responses) >10” value is recorded as “• (>10)” and the “Visual inspection (no of responses) Response” value is 12.

Take `CCCCOCCOCCOC(C)=O` [2-(2-Butoxyethoxy)-acetate ethanol, 2-(2-butoxyethoxy)ethyl acetate]: in experiment [1], the “Responses Total” value is on record as 12, the “Responses Females” value came out at 5, the “Responses Males” value was 7 and the “electroantennogram (EAG) response” value is given as “EAG-active”. Besides, in experiment [1], the “Visual inspection (no of responses) >5” value is recorded as “• (>5)”, the “Visual inspection (no of responses) >10” value is on record as “• (>10)” and the “Visual inspection (no of responses) Response” value turned out to be 12.

As to `CCCCCCCCCCCC` [Dodecane, dodecane], in experiment [1], the “Electrophysiology Auto method” value is listed as “•”, the “Responses Total” value was 16, the “Responses Females” value is 8 and the “Responses Males” value worked out at 8. In addition, in experiment [1], the “electroantennogram (EAG) response” value is reported as “EAG-active”, the “Visual inspection (no of responses) >5” value was “• (>5)”, the “Visual inspection (no of responses) >10” value is “• (>10)” and the “Visual inspection (no of responses) >15” value is given as “• (>15)”. Further, the “Visual inspection (no of responses) Response” value in experiment [1] amounted to 16.

For `CCCCCCCCC(C)=O` [2-Decanone, 2-decanone], in experiment [1], the “Responses Total” value is 9, the “Responses Females” value is reported as 4, the “Responses Males” value is 5 and the “electroantennogram (EAG) response” value is listed as “EAG-active”. For the same molecule, in experiment [1], the “Visual inspection (no of responses) >5” value is listed as “• (>5)” and the “Visual inspection (no of responses) Response” value amounted to 9.

On to `CSSSC` [dimethyl trisulfide], for which, in experiment [2], the “attraction of bed bugs to safe shelters” value is “attract bed bugs to safe shelters”.

For the molecule `O=Cc1ccccc1` (single isomer, unassigned) [Benzaldehyde, benzaldehyde], in experiment [1], the “Responses Total” value was determined as 8, the “Responses Females” value is listed as 3, the “Responses Males” value is on record as 5 and the “electroantennogram (EAG) response” value is reported as “EAG-active”. In experiment [1], the “Visual inspection (no of responses) >5” value is recorded as “• (>5)” and the “Visual inspection (no of responses) Response” value is recorded as 8.

With `C=C1C=CC(C(C)C)CC1` (single isomer, unassigned) [β-Phellandrene, β-phellandrene], in experiment [1], the “Responses Total” value is 11, the “Responses Females” value was determined as 6, the “Responses Males” value worked out at 5 and the “electroantennogram (EAG) response” value is listed as “EAG-active”. In experiment [1], the “Visual inspection (no of responses) >5” value is “• (>5)”, the “Visual inspection (no of responses) >10” value is given as “• (>10)” and the “Visual inspection (no of responses) Response” value is given as 11.

On to `CCCCCC/C=C/C=O` [(E)-2-Nonenal, (E)-2-nonenal], for which, in experiment [1], the “Electrophysiology Auto method” value is given as “•”, the “Responses Total” value was 13, the “Responses Females” value is listed as 8 and the “Responses Males” value came to 5. In addition, in experiment [1], the “electroantennogram (EAG) response” value is “EAG-active”, the “Visual inspection (no of responses) >5” value is given as “• (>5)”, the “Visual inspection (no of responses) >10” value was “• (>10)” and the “Visual inspection (no of responses) Response” value is 13.

For `NCCc1c[nH]cn1` [histamine], the “arrestment of bed bugs” value in experiment [2] (less-volatile component) was “causes their arrestment upon contact”.

Turning to `CCCCCC=O` (single isomer, unassigned) [Hexanal, hexanal], in experiment [1], the “Responses Total” value was found to be 9, the “Responses Females” value is recorded as 4, the “Responses Males” value came out at 5 and the “electroantennogram (EAG) response” value was “EAG-active”. Further, in experiment [1], the “Visual inspection (no of responses) >5” value is listed as “• (>5)” and the “Visual inspection (no of responses) Response” value was found to be 9.
